What was measured:
[1] = system: Akt; experiment: FOXO1-clover reporter live-cell imaging (relative nuclear intensity) in C3H10T1/2 fibroblasts; format: cell-based, mouse; settings: cells pre-incubated in SFM, population level
Experimental: (§1) Cells were imaged every 2-min for 60 min. At the end of the incubation period whole cell lysates were collected.
10T1/2 cells and C2 myoblasts were incubated in serum-free medium for 90 min. R3-IGF-I was added in supplemented FluoroBrite [0 to 500 pM], and cells were imaged every 2-min for 60 min. […]
(§2) Live cell imaging was performed using an EVOS FL Auto microscope with a stage top incubator that was maintained at 37° C. and 95% humidified air with 5% CO2. Images were collected at 100× magnification at different intervals, using a 10× Fluorite objective (numerical aperture: 0.3), and a GFP light cube (excitation peak, 472/22 nm; emission peak, 510/42 nm). Images were analyzed with the NIH ImageJ plug-in Fiji (NIH, Bethesda, Md.), after using the Polynomial Fit plug-in to subtract background fluorescence, the Stack Reg (rigid registration) plug-in to register images, and the Gaussian Blur plug-in (at 2-pixels) to average fluorescence across pixels. Individual cells were manually tracked using the mTrackJ plug-in (Meijering E et al, Methods Enzymol 504, 183-200 (2012); incorporated by reference herein) by selecting a single point in the nucleus. Cells that died, divided, or migrated out of frame were excluded from analysis. In experiments performed in 6-well dishes, two locations on opposite sides of the well were imaged, while for studies using 24-well plates, one central location was imaged. In each location, at least 25 cells were tracked.

[2] = system: Akt phosphorylation; experiment: Immunoblotting of Akt and PRAS40 phosphorylation in 10T1/2 whole cell lysates; format: cell-based, mouse; settings: insulin 1400 pM
Experimental: as §1
Whole cell protein lysates were prepared as described (Mukherjee A and Rotwein P, Mol Endorcrinol 22, 1238-1250 (2008); incorporated by reference herein). Protein aliquots (15 μg/lane) were resolved by SDS-PAGE (12% separating gel), followed by transfer to Immobilon-FL membranes, and blocking with 50% AquaBlock solution. Membranes were incubated sequentially with primary and secondary antibodies, as described (Mukherjee and Rotwein, 2008 supra). Primary antibodies were incubated for 12-16 hr at a 1:1000 dilution, except for α-tubulin (1:10,000), and secondary antibodies for 90 min at 1:5000. Images were captured using the LiCoR Odyssey and version 3.0 analysis software (Lincoln, Nebr.).
C3H10T1/2 cells stably expressing FoxO1-clover were incubated in SFM with Fluorobrite imaging media for 90 min followed by addition of insulin [1400 pM], EGF [4.2 nM], PDGF-AA [1400 pM], or PDGF BB [104 pM]. Whole protein lysates were collected after 0, 5, 15, 30, 60, and 90 min of growth factor exposure by washing cells twice with cold PBS and addition of RIPA buffer containing protease and phosphatase inhibitors (Mukherjee A and Rotwein P, Mol Endocrinol 22, 1238-1250 (2008); incorporated by reference herein). Protein aliquots (12.5 μg/lane) were resolved by SDS PAGE (10% separating gels), and transferred onto Immobilon-FL membranes. Membranes were incubated in 50% AquaBlock for 60 min, followed by addition of primary antibodies at 1:1000 dilution for 16 hr, and secondary antibodies for 90 min at 1:5000. Images were collected using the LiCoR Odyssey and analysis software version 3.0 (Lincoln, Nebr.).

[3] = biological target: IGF-I receptor (Homo sapiens, UniProt P08069); settings: cited from earlier work
IGF-I receptor, sequence (P08069 31-736 limits assumed, species assumed): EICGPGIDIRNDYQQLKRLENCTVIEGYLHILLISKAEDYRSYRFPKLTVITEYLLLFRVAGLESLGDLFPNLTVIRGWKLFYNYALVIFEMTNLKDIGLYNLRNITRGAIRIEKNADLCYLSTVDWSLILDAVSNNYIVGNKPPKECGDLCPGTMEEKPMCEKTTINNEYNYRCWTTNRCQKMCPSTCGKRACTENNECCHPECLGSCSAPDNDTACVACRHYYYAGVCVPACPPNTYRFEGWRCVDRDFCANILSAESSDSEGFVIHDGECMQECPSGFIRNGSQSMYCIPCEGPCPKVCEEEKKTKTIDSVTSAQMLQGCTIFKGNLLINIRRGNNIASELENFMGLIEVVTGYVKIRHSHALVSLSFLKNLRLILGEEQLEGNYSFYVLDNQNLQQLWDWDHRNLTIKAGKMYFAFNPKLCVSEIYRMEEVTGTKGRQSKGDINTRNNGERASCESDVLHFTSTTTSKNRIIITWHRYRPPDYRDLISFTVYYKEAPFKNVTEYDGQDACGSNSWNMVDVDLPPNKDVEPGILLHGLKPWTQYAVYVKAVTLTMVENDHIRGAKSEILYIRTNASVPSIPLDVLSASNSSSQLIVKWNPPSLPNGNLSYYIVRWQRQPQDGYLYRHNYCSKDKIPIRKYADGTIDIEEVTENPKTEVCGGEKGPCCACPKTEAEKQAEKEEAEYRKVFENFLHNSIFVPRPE
IGF-I receptor, sequence (P08069 741-1367 partner limits assumed, species assumed): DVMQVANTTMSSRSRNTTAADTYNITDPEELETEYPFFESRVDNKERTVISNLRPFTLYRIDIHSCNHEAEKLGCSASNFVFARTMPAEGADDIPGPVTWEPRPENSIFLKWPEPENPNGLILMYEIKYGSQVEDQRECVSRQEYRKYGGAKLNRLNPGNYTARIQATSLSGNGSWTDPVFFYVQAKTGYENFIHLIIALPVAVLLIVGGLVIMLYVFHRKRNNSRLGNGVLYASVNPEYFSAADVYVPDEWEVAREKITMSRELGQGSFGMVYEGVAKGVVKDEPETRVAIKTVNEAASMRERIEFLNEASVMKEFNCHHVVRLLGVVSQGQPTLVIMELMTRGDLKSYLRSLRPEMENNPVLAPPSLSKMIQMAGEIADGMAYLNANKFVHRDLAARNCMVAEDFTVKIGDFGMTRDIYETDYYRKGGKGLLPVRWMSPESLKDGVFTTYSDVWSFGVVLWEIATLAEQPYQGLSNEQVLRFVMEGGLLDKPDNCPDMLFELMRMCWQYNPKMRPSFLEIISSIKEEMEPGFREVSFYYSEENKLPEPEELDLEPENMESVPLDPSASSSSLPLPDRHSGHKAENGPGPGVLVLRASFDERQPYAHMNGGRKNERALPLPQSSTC

[4] = system: Akt; experiment: FoxO1-clover reporter live-cell imaging in HeLa cells; format: cell-based; settings: IGF-I 500 pM, insulin 1400 pM, EGF 4.2 nM, PDGF-BB 4.1 nM, PDGF-AA 3.5 nM; 90 min
Experimental: HeLa cells (ATCC #CCL2) were incubated in DMEM supplemented with 10% FBS. Cells were transduced at 50% of confluent density with concentrated FoxO1-clover virus in the presence of polybrene (6 μg/ml), as described (Gross S M and Rotwein P, Skelet Muscle 3, doi10.1186/2044-5040-3-10 (2013); incorporated by reference herein), and sorted by fluorescence intensity with a Becton-Dickinson Influx cell sorter. Reporter expression was stable for at least 10 passages in each sorted cell population. C3H10T1/2 mouse embryonic fibroblasts (ATC #CCL226) stably expressing FoxO1-clover (Gross and Rotwein, 2015), were maintained under selection with puromycin (2 μg/ml).
as §2, with “tracked. The relative nuclear intensity of the FoxO1-clover reporter protein was calculated in each cell by normalizing the values measured at time 0 to 100%. This corresponded to incubation in serum-free medium (SFM). In graphs in which single cell responses were plotted with C3H10T1/2 cells, we applied a time-weighted smoothing filter to each data point. This consisted of averaging contributions from the two prior and two succeeding times (adding 50% of the prior or succeeding time point, and 25% of the next succeeding or earlier time point to 100% of the value of the time point in question, and then dividing by 2.5).” for “tracked.”
Short-term responses to individual growth factors: C3H10T1/2 cells were incubated in serum-free Fluorobrite medium plus 2 mM L-glutamine and 0.1% bovine serum albumin for 90 min. Different concentrations of growth factors were added and images were collected every 2 min for 90 min. Growth factors included insulin [0 to 1400 pM], EGF [0 to 4.2 nM], PDGF-AA [0 to 1400 pM], or PDGF-BB [0 to 104 pM]. HeLa cells were incubated in serum-free Fluorobrite medium for 120 min and then incubated with insulin [1400 pM], EGF [4.2 nM], PDGF-AA [3.5 nM], PDGF-BB [4.1 nM], or R3-486 IGF-I [500 pM], with images collected every 2 min.

[5] = different growth factor concentrations

insulin: recombinant human insulin (Tocris Bioscience)
change of nuclear levels of the reporter on growth factor addition (result in words) ([1]; different concentrations): rapid, dose-dependent, and sustained decrease in nuclear levels of FoxO1-clover | time to half-maximal translocation/accumulation of reporter in the cytoplasm after onset of incubation [1, 5]: 8 to 15 min | time to maximal translocation values [1, 5]: ~20 min | time at which phosphorylation of Akt and PRAS40 was detected [2]: ≤ 5 min | time course of Akt and PRAS40 phosphorylation (result in words) ([2]; EGF 4.2 nM, PDGF-AA 1400 pM, PDGF-BB 104 pM, up to 90 min): rapid and sustained | affinity for IGF-I receptor relative to insulin receptor (fold less) [3]: ~1000 fold | signaling response in HeLa FoxO1-clover cells (result in words) [4]: sustained signaling effects
